Reference: patent publication US20070172957A1, “Methods of identifying anti-inflammatory macrolides” (TAISHO PHARMACEUTICAL CO., LTD., priority 2004, published 2007)

Test system: A549 cells
Experiment: A549 microarray comparing macrolides with arachidonic acid pathway inhibitors, with IL-1β stimulation (Appendix C, Tables 6-9), and correlation analysis
Type: cell-based
Excerpt: One inhibitor, triacsin C, acts on AA biosynthesis by inhibiting arachidonyl CoA synthetases, blocking the incorporation of free AA into phospholipids. Triacsin C is reasonably specific for AA compared to other fatty acids. However, triacsin C structurally resembles AA so it also may interfere with other steps in the AA pathway. Indomethacin is an inhibitor of COX1 and COX2 enzyme activities and therefore specifically blocks metabolism of AA into prostaglandins. […] It inhibits transcription of PLA2, and transcriptionally and post-transcriptionally regulates COX1 and COX2 activities. Dexamethasone has additional effects unrelated to AA through binding with the glucocorticoid receptor to glucocortcoid response elements.
A549 cells were pre-incubated overnight (17 hours) with macrolides (10 μM FMA-9045, 50 μM clarithromycin, 50 μM roxithromycin, 50 μM josamycin) and 15 μM triacsin C, and pre-incubated 2 hours with 100 nM indomethacin and 100 nM dexamethasone. All cells then were stimulated for 4 hours with IL-1β, because the activation of PLA2 and downstream signaling events generally requires an inflammatory stimulus. The various treatment conditions are shown below in Table 4. Following macrolide and inhibitor pre-treatment and IL-1 stimulation, the cells were lysed, total RNA was collected, and the poly-A+ mRNA fraction was purified. The resulting microarray data (Appendix C) were analyzed using the methods described in the Examples above.
The tables in Appendix C represent the effects of the arachidonic acid pathway inhibitors (“AA pathway inhibitors”) and the effects of the macrolides (“IL1+macrolide effects”). […] In both tables in Appendix C, the genes that meet this criterion (≧1.3 min fold change) are indicated in bold.
Quantitative analysis was done to determine how well the responses to the different AA pathway inhibitors correlated. The correlation values were assigned a p-value to provide statistical confidence to the correlation value. Correlation between experiments, across all spots showing good detection, was assessed by cosine vector angle to generate the data shown in Tables 7-9. A correlation coefficient close to one indicates strong correlation, whereas a value near zero indicates no correlation. P-values for each correlation coefficient were estimated based on a Fisher permutation test. In this test, each spot's expression ratios were randomly re-ordered across experiments and the degree of correlation between experiments was then reassessed. This was done repeatedly.

[1] = A549 cells, +IL1b +/- inhibitor

O=C(O)Cc1cc(I)c(Oc2ccc(O)c(I)c2)c(I)c1 [Triac]
min fold change, SpotID 46796 STC1 (stanniocalcin 1) [1]: 1.00 | min fold change, SpotID 46950 SERPINA3 (serine (or cysteine) proteinase inhibitor, clade A, member 3) [1]: 1.00 | min fold change, SpotID 46985 RIPK2 (RIP2, RICK; receptor-interacting serine-threonine kinase 2) [1]: 1.43 | min fold change, SpotID 47155 TNFAIP6 (tumor necrosis factor, alpha-induced protein 6) [1]: 1.02 | min fold change, SpotID 47166 SERPINA6 (serine (or cysteine) proteinase inhibitor, clade A, member 6) [1]: 1.36 | min fold change, SpotID 47193 STAT3 (signal transducer and activator of transcription 3) [1]: 1.32 | min fold change, SpotID 47332 SERPINB3 (serine (or cysteine) proteinase inhibitor, clade B (ovalbumin), member 3) [1]: 1.06 | min fold change, SpotID 47444 TKT (transketolase (Wernicke-Korsakoff syndrome)) [1]: 1.16 | min fold change, SpotID 47569 STAT3 (signal transducer and activator of transcription 3) [1]: 1.19 | min fold change, SpotID 47697 TNFRSF6B (DcR3; tumor necrosis factor receptor superfamily, member 6b, decoy) [1]: 1.11 | min fold change, SpotID 47698 PTPRJ (protein tyrosine phosphatase, receptor type, J) [1]: 1.11 | min fold change, SpotID 47987 THBS1 (thrombospondin 1) [1]: 1.00 | min fold change, SpotID 48050 RPS6KA2 (ribosomal protein S6 kinase, 90 kD, polypeptide 2) [1]: 1.12 | min fold change, SpotID 48234 PTPRZ1 (PTP zeta; protein tyrosine phosphatase, receptor-type, Z polypeptide 1) [1]: 1.00 | min fold change, SpotID 48239 TLN1 (talin 1) [1]: 1.34 | min fold change, SpotID 48288 TRAF5 (TNF receptor-associated factor 5) [1]: 1.34 | min fold change, SpotID 48359 RIPK1 (receptor (TNFRSF)-interacting serine-threonine kinase 1) [1]: 1.00 | min fold change, SpotID 48392 RIPK1 (receptor (TNFRSF)-interacting serine-threonine kinase 1) [1]: 1.00 | min fold change, SpotID 48395 TNFRSF7 (CD27; tumor necrosis factor receptor superfamily, member 7) [1]: 1.09 | min fold change, SpotID 48485 UCP1 (uncoupling protein 1 (mitochondrial, proton carrier)) [1]: 1.15 | min fold change, SpotID 48500 RPL13A (ribosomal protein L13a) [1]: 1.25 | min fold change, SpotID 48594 RPS6KA2 (ribosomal protein S6 kinase, 90 kD, polypeptide 2) [1]: 1.00 | min fold change, SpotID 48603 TEAD4 (TEA domain family member 4) [1]: 1.38 | min fold change, SpotID 49330 TNFRSF7 (CD27; tumor necrosis factor receptor superfamily, member 7) [1]: 1.51 | min fold change, SpotID 49899 WWOX (WW domain containing oxidoreductase) [1]: 1.51 | min fold change, SpotID 49901 TROAP (trophinin associated protein (tastin)) [1]: 1.01 | min fold change, SpotID 50379 TNFRSF6 (FAS; tumor necrosis factor receptor superfamily, member 6) [1]: 1.04 | min fold change, SpotID 50428 RPLP0 (ribosomal protein, large, P0) [1]: 1.00 | min fold change, SpotID 50491 TNFRSF6B (DcR3; tumor necrosis factor receptor superfamily, member 6b, decoy) [1]: 1.36 | wtd means, SpotID 46796 STC1 (stanniocalcin 1) [1]: 1.05 | wtd means, SpotID 46950 SERPINA3 (serine (or cysteine) proteinase inhibitor, clade A, member 3) [1]: 1.06 | wtd means, SpotID 46985 RIPK2 (RIP2, RICK; receptor-interacting serine-threonine kinase 2) [1]: 1.70 | wtd means, SpotID 47155 TNFAIP6 (tumor necrosis factor, alpha-induced protein 6) [1]: 1.08 | wtd means, SpotID 47166 SERPINA6 (serine (or cysteine) proteinase inhibitor, clade A, member 6) [1]: 1.48 | wtd means, SpotID 47193 STAT3 (signal transducer and activator of transcription 3) [1]: 1.47 | wtd means, SpotID 47332 SERPINB3 (serine (or cysteine) proteinase inhibitor, clade B (ovalbumin), member 3) [1]: 1.22 | wtd means, SpotID 47444 TKT (transketolase (Wernicke-Korsakoff syndrome)) [1]: 0.76 | wtd means, SpotID 47569 STAT3 (signal transducer and activator of transcription 3) [1]: 1.34 | wtd means, SpotID 47697 TNFRSF6B (DcR3; tumor necrosis factor receptor superfamily, member 6b, decoy) [1]: 1.24 | wtd means, SpotID 47698 PTPRJ (protein tyrosine phosphatase, receptor type, J) [1]: 1.17 | wtd means, SpotID 47987 THBS1 (thrombospondin 1) [1]: 0.87 | wtd means, SpotID 48234 PTPRZ1 (PTP zeta; protein tyrosine phosphatase, receptor-type, Z polypeptide 1) [1]: 1.00 | wtd means, SpotID 48239 TLN1 (talin 1) [1]: 1.41 | wtd means, SpotID 48288 TRAF5 (TNF receptor-associated factor 5) [1]: 1.60 | wtd means, SpotID 48359 RIPK1 (receptor (TNFRSF)-interacting serine-threonine kinase 1) [1]: 1.27 | wtd means, SpotID 48392 RIPK1 (receptor (TNFRSF)-interacting serine-threonine kinase 1) [1]: 1.08 | wtd means, SpotID 48395 TNFRSF7 (CD27; tumor necrosis factor receptor superfamily, member 7) [1]: 1.50 | wtd means, SpotID 48485 UCP1 (uncoupling protein 1 (mitochondrial, proton carrier)) [1]: 1.59 | wtd means, SpotID 48500 RPL13A (ribosomal protein L13a) [1]: 1.37 | wtd means, SpotID 48603 TEAD4 (TEA domain family member 4) [1]: 1.65 | wtd means, SpotID 49330 TNFRSF7 (CD27; tumor necrosis factor receptor superfamily, member 7) [1]: 1.73 | wtd means, SpotID 49899 WWOX (WW domain containing oxidoreductase) [1]: 1.62 | wtd means, SpotID 49901 TROAP (trophinin associated protein (tastin)) [1]: 0.90 | wtd means, SpotID 50379 TNFRSF6 (FAS; tumor necrosis factor receptor superfamily, member 6) [1]: 1.41 | wtd means, SpotID 50428 RPLP0 (ribosomal protein, large, P0) [1]: 0.84 | wtd means, SpotID 50491 TNFRSF6B (DcR3; tumor necrosis factor receptor superfamily, member 6b, decoy) [1]: 1.56

CCC/C=C/C/C=C/C=C/C=N/NN=O [triacsin C]
Total # Differential Genes (95% confidence) (A549, IL1 vs IL1 + drug, threshold 1.3, macrolides 50 μM (FMA 10 μM), triacsin C 15 μM, indomethacin and dexamethasone 100 nM): 228 | FADS1 expression (A549 cells, microarray): induced
